{
  "source": "ChEMBL document CHEMBL1201862",
  "about": "“PubChem BioAssay data set” (2004)",
  "assay_in_all_cases": "DTP human tumour cell line panel, 48 h",
  "key": {"DMS-114": {"tested_on": "DMS-114"}, "U-251": {"tested_on": "U-251"}, "SF-539": {"tested_on": "SF-539"}, "UACC-257": {"tested_on": "UACC-257"}, "NCI-H226": {"tested_on": "NCI-H226"}, "HOP-92": {"tested_on": "HOP-92"}, "NCI-H460": {"tested_on": "NCI-H460"}, "TK-10": {"tested_on": "TK-10"}, "DLD-1": {"tested_on": "DLD-1"}, "XF498": {"tested_on": "XF498"}, "SW-620": {"tested_on": "SW-620"}, "COLO 205": {"tested_on": "COLO 205"}, "SF-295": {"tested_on": "SF-295"}, "DMS-273": {"tested_on": "DMS-273"}, "CAKI-1": {"tested_on": "CAKI-1"}, "ACHN": {"tested_on": "ACHN"}, "SN12C": {"tested_on": "SN12C"}, "HOP-18": {"tested_on": "HOP-18"}, "RXF 393": {"tested_on": "RXF 393"}, "SK-MEL-28": {"tested_on": "SK-MEL-28"}, "OVCAR-5": {"tested_on": "OVCAR-5"}, "EKVX": {"tested_on": "EKVX"}, "HCC 2998": {"tested_on": "HCC 2998"}, "HT-29": {"tested_on": "HT-29"}, "SF-268": {"tested_on": "SF-268"}, "OVCAR-3": {"tested_on": "OVCAR-3"}, "Malme-3M": {"tested_on": "Malme-3M"}, "SK-MEL-2": {"tested_on": "SK-MEL-2"}, "KM12": {"tested_on": "KM12"}, "KM-20L2": {"tested_on": "KM-20L2"}, "HL-60": {"tested_on": "HL-60"}, "UO-31": {"tested_on": "UO-31"}, "NCI-H23": {"tested_on": "NCI-H23"}, "LOX IMVI": {"tested_on": "LOX IMVI"}, "786-0": {"tested_on": "786-0"}, "LXFL 529": {"tested_on": "LXFL 529"}, "SNB-78": {"tested_on": "SNB-78"}, "A549": {"tested_on": "A549"}, "HCT-116": {"tested_on": "HCT-116"}, "SNB-19": {"tested_on": "SNB-19"}, "OVCAR-4": {"tested_on": "OVCAR-4"}, "M19-MEL": {"tested_on": "M19-MEL"}, "SNB-75": {"tested_on": "SNB-75"}, "HOP-62": {"tested_on": "HOP-62"}, "NCI-H522": {"tested_on": "NCI-H522"}, "M14": {"tested_on": "M14"}, "OVCAR-8": {"tested_on": "OVCAR-8"}},
  "note": "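Five compound concentrations were applied to cells in 96-well plates for 48 hours; endpoints were derived by simple linear interpolation of the resulting dose-response curve. Abbreviation: GI50, concentration required for 50% inhibition of growth.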 Activity calls are given as the source filed them. Rule as the data show it: active = GI50 up to about 1.1 µM and inactive = higher.",
  "data": [
    {"smiles": "CC(NC(=O)C(=O)N/N=C1\\C[C@@H](c2ccccc2)Nc2ccccc21)c1ccccc1", "note": "(some centres not stated)", "values": [
      {"measurement": "GI50", "setting": "DMS-114", "value": "97.1 µM (inactive)"},
      {"measurement": "GI50", "setting": "U-251", "value": "> 100 µM (inactive)"},
      {"measurement": "GI50", "setting": "SF-539", "value": "> 100 µM (inactive)"},
      {"measurement": "GI50", "setting": "UACC-257", "value": "0.382 µM (active)"},
      {"measurement": "GI50", "setting": "NCI-H226", "value": "10.4 µM (inactive)"},
      {"measurement": "GI50", "setting": "HOP-92", "value": "20 µM (inactive)"},
      {"measurement": "GI50", "setting": "NCI-H460", "value": "> 100 µM (inactive)"},
      {"measurement": "GI50", "setting": "TK-10", "value": "> 100 µM (inactive)"},
      {"measurement": "GI50", "setting": "DLD-1", "value": "> 100 µM (inactive)"},
      {"measurement": "GI50", "setting": "XF498", "value": "18.3 µM (inactive)"},
      {"measurement": "GI50", "setting": "SW-620", "value": "> 100 µM (inactive)"},
      {"measurement": "GI50", "setting": "COLO 205", "value": "48.2 µM (inactive)"},
      {"measurement": "GI50", "setting": "SF-295", "value": "> 100 µM (inactive)"},
      {"measurement": "GI50", "setting": "DMS-273", "value": "7.55 µM (inactive)"},
      {"measurement": "GI50", "setting": "CAKI-1", "value": "> 100 µM (inactive)"},
      {"measurement": "GI50", "setting": "ACHN", "value": "36.1 µM (inactive)"},
      {"measurement": "GI50", "setting": "SN12C", "value": "1.06 µM (active)"},
      {"measurement": "GI50", "setting": "HOP-18", "value": "< 0.01 µM (active)"},
      {"measurement": "GI50", "setting": "RXF 393", "value": "53.7 µM (inactive)"},
      {"measurement": "GI50", "setting": "SK-MEL-28", "value": "> 100 µM (inactive)"},
      {"measurement": "GI50", "setting": "OVCAR-5", "value": "> 100 µM (inactive)"},
      {"measurement": "GI50", "setting": "EKVX", "value": "17.1 µM (inactive)"},
      {"measurement": "GI50", "setting": "HCC 2998", "value": "> 100 µM (inactive)"},
      {"measurement": "GI50", "setting": "HT-29", "value": "80.7 µM (inactive)"},
      {"measurement": "GI50", "setting": "SF-268", "value": "94.6 µM (inactive)"},
      {"measurement": "GI50", "setting": "OVCAR-3", "value": "> 100 µM (inactive)"},
      {"measurement": "GI50", "setting": "Malme-3M", "value": "20.5 µM (inactive)"},
      {"measurement": "GI50", "setting": "SK-MEL-2", "value": "53 µM (inactive)"},
      {"measurement": "GI50", "setting": "KM12", "value": "> 100 µM (inactive)"},
      {"measurement": "GI50", "setting": "KM-20L2", "value": "> 100 µM (inactive)"},
      {"measurement": "GI50", "setting": "HL-60", "value": "8.57 µM (inactive)"},
      {"measurement": "GI50", "setting": "UO-31", "value": "33 µM (inactive)"},
      {"measurement": "GI50", "setting": "NCI-H23", "value": "> 100 µM (inactive)"},
      {"measurement": "GI50", "setting": "LOX IMVI", "value": "> 100 µM (inactive)"},
      {"measurement": "GI50", "setting": "786-0", "value": "> 100 µM (inactive)"},
      {"measurement": "GI50", "setting": "LXFL 529", "value": "77.4 µM (inactive)"},
      {"measurement": "GI50", "setting": "SNB-78", "value": "> 100 µM (inactive)"},
      {"measurement": "GI50", "setting": "A549", "value": "> 100 µM (inactive)"},
      {"measurement": "GI50", "setting": "HCT-116", "value": "> 100 µM (inactive)"},
      {"measurement": "GI50", "setting": "SNB-19", "value": "> 100 µM (inactive)"},
      {"measurement": "GI50", "setting": "OVCAR-4", "value": "29.3 µM (inactive)"},
      {"measurement": "GI50", "setting": "M19-MEL", "value": "> 100 µM (inactive)"},
      {"measurement": "GI50", "setting": "SNB-75", "value": "10.7 µM (inactive)"},
      {"measurement": "GI50", "setting": "HOP-62", "value": "> 100 µM (inactive)"},
      {"measurement": "GI50", "setting": "NCI-H522", "value": "> 100 µM (inactive)"},
      {"measurement": "GI50", "setting": "M14", "value": "> 100 µM (inactive)"},
      {"measurement": "GI50", "setting": "OVCAR-8", "value": "> 100 µM (inactive)"}
    ]}
  ]
}
